These results are taken from BindingDB's records for patent US10285988 (Curegenix, 2019).

Protein Wnt-3a, sequence (P56704 whole entry): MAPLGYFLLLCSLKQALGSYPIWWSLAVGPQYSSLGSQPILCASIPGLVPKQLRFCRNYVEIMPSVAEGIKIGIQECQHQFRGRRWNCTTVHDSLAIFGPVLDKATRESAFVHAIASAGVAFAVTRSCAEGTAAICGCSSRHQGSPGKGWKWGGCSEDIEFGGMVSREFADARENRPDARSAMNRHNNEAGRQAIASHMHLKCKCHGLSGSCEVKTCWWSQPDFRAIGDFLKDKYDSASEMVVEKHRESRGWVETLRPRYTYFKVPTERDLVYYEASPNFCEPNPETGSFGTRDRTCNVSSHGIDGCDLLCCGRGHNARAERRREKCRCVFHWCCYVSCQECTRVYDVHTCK

The assay addresses Protein Wnt-3a (Human, UniProt P56704). The experiment in a line: WNT Pathway Reporter Gene Assay. As for the experimental part: Materials and Methods: NIH3T3 mouse fibroblast cells (American Type Culture Collection, Manassas, Va.) were transfected with a plasmid containing a luciferase gene driven by 5 copies of TCF elements. Stale cells selected with 1 μg/mL of Zeocin (Gibco/Invitrogen, Carlsbad, Calif.) are cultured in Dulbecco's modified Eagle's medium (Invitrogen, Carlsbad, Calif.) supplemented with 10% FBS (Invitrogen), 50 unit/mL penicillin and 50 μg/mL of streptomycin (Invitrogen) at 37° C. with 5% CO2 in air atmosphere. […] After 16 hours, the firefly luciferase activities are measured with the Steady-Glo Luciferase Assay System (Promega). The cells were treated with different concentrations of compounds of this invention during the co-culture. […] To normalize for cell quantity and viability, CellTiter Glo assay is next performed in a duplicate plate.
For orientation: A reporter such as luciferase makes a cellular process visible.
`Cc1cc(-c2cc3ccnc(NCc4ccc(-c5ccnc(F)c5)c(F)c4)c3cn2)ccn1` [US10285988, Compound 28] displayed an IC50 of less than 3 nM.

`Cc1cc(-c2ccc(CNc3nccc4cc(-c5cnccn5)ncc34)cc2)ccn1` [US10285988, Compound 35]: the half-maximal inhibitory concentration (IC50) was less than 3 nM.

For the compound `Cc1cc(-c2ccc(CNc3nccc4cc(-c5ccnc(C)c5)ncc34)cc2)ccn1` [US10285988, Compound 1], the IC50 was less than 3 nM.

`Cc1cc(-c2ncc(CNc3nccc4cc(-c5cnccn5)ccc34)cc2C)ccn1` [US10285988, Compound 70]: the IC50 is less than 3 nM.

The compound `Cc1cc(-c2cc3ccnc(NCc4ccc(-c5ccnc(C)c5)c(C)c4)c3cn2)ccn1` [US10285988, Compound 2] gave an IC50 of less than 3 nM.

As a reminder, the IC50 is the concentration that gives 50% inhibition. A high value points to a need for much substance.
